Measurements as given in patent publication US6963769B1, “Method for enhancing contrast produced by MRI” (The United States of America as represented by the …, priority 1999, dated 2005).
“And” between values parts separate entries of the source, which are not always exact repeats. Identical values can stand only once. Counter-ions that a name gives are not always drawn. Like-named read-outs stand apart in the source and are kept apart here.

Columns and labels:
[1] = in vitro CEDST spectra of candidate contrast agents (proton chemical exchange with water), 7T; conditions: for chemical shift of proton chemical exchange site (ΔωcA): relative to water
Protocol: Test compounds were dissolved in HPLC grade water at concentrations denoted in Table 1 with inorganic phosphate buffers to maintain pH.
CEDST spectra were acquired at 7T using a Bruker AC-300 wide bore spectrometer at 37° C. The observation frequency was set on the water peak and the decoupler was used to provide off-resonance saturation. Studies were conducted using a steady-state with irradiation (15 seconds) over a range of irradiation frequencies ±8.00 ppm from water. CEDST spectra were plotted in the form of water amplitude (Ms) versus irradiation frequency.
Several chemical reagents, including 5,6-dihydrouracil, 5-hydroxy-tryptophan, hydantoin, parabanic acid, sugars, amino acids, nucleosides, and imidazoles (Table 1), were tested for their ability to undergo proton chemical exchange detected using CEDST. Chemical shifts are reported relative to the water resonance. The spectral dependence of CEDST was determined by sweeping the irradiation frequency and while monitoring the water resonance.
Saturation depends on the B1 power and the irradiation offset frequency. The appropriate power was determined by increasing power until no further decrease in Ms was observed. […] Spin lattice relaxation time constants (T1) were obtained with inversion-recovery experiments. The range of inversion delays (Ti) was between 0.001 and 30 seconds, with a 30 second pre-delay.

[2] = cited from earlier work
[3] = MR images of phantoms, 4T GRE sequence with off-resonance saturation at ±850 Hz (5.00 ppm), difference image; assay type: physicochemical
Protocol: The results in FIG. 3 confirm those of FIG. 2. MR images of phantoms were collected on a custom-designed 4T system operating at room temperature (about 20° C.). The imaging sequence itself is a GRE (Gradient Recalled Echo) imaging sequence with an off-resonance saturation pulse centered at an offset of 5.00 ppm (850 Hz for the field at 4 Tesla). The other parameters used were: 90 degree flip angle used, TE (Echo time)=9 msec, TR (Repetition time)=1.2 sec, 16 Sinc pulses, followed by crusher gradients (which completely dephased the transverse magnetization). Four test tubes are shown in FIG. 3, with each containing a different solution. Three contained 62.5 mM barbituric acid at pH=7.4, 7.0, or 6.5. The fourth test tube contained 500 mM NH4Cl at pH=5.0. These test tubes were placed inside the 4T NMR imaging system, irradiated at ±850 Hz, and both control and experimental images were collected as described previously. FIG. 3 is the difference image generated by subtracting the experimental image from the control image. […] Therefore, the signals in these phantoms were generated due to proton chemical exchange with barbituric acid. The brightest signal in these phantoms (where the control and experimental image difference was the greatest) was generated by barbituric acid at pH=7.4.

rabbit bladder = assay: in vivo CEDST MRI of rabbit bladder after intravenous barbituric acid, 4 Tesla; design: species or system New Zealand White rabbit
Protocol: This example describes the in vivo analysis of barbituric acid in a rabbit bladder. A male New Zealand White rabbit (1.5 kg, Hazelton Research Products, Denver Pa.) was initially anaesthetized with an intramuscular injection of a mixture of ketamine/acepromazaine (180 mg/2 mg), intubated and placed on a Siemens 900c ventilator (Siemens Medical Systems, Danvers Mass.). A catheter was placed in the marginal ear vein for infusion of intravenous fluids to maintain volume status. This catheter also was used to administer three doses of 50 mL barbituric acid solution (125 mM, pH=7.4, 20 mM phosphate buffer). Anesthesia was maintained with 2% isoflurane until sacrifice with 6 meq of KCl IV.
The rabbit was analyzed using a 4 Tesla magnet at the settings described in Example 1. The images were obtained after irradiation at the ppm offset characteristic of barbituric acid (5.25). […] The bladder and surrounding muscles are visible. This control image is collected to correct for the broad background of saturation transfer from macromolecules (i.e. proteins, lipids) located underneath the water signal. Guivel-Scharen et al., J. Magn. Reson., 133:36-45 (1998), herein incorporated by reference. […] This will irradiate the barbituric acid signal.
Following sacrifice of the rabbit, urine was collected and evaluated on the 7T system at 37° C. as described in Example 1. […] FIGS. 12-14 also confirm the identity of the metabolite imaged during the in vivo analysis.

[4] = cited from earlier work; remark: listed apart in the source
[5] = pKa of the proton exchange site
[6] = 62.5 mM, 37° C., 20 mM phosphate buffer, 10.88 × 10^−7T, at given ppm and pH
[7] = 62.5 mM, 37° C., 20 mM phosphate buffer, exchange site
[8] = 35 mM, —NH2, 37° C., 20 mM phosphate buffer, 10.88 × 10^−7T, at listed pH
[9] = 125 mM, 37° C., 20 mM phosphate buffer, 10.88 × 10^−7T, at given ppm and pH
[10] = 125 mM, 37° C., 20 mM phosphate buffer, exchange site
[11] = sugars 250 mM, —OH protons, single pH 7.0, 37° C., 20 mM phosphate buffer
[12] = sugars 250 mM, —OH protons, single pH 7.0, 37° C., 20 mM phosphate buffer, saturation power 10.88 × 10^−7T
[13] = imidazole derivatives, ring protons (—NH), concentration not given, 37° C., 20 mM phosphate buffer
[14] = 125 mM, guanidinium protons, single pH 7.0, 37° C., 20 mM phosphate buffer, 10.88 × 10^−7T
[15] = 125 mM, 3-NH, 37° C., 2 mM phosphate buffer, 10.88 × 10^−7T, at listed pH

With `N[C@@H](Cc1c[nH]c2ccc(O)cc12)C(=O)O` [5-Hydroxy-Tryptophan] the Ms/Mo [1, 6] was 0.57 and 0.79, the “ppm (relative to the resonant frequency of water)” value [1, 7] was 2.833 ppm and 5.333 ppm and the “chemical shift of proton chemical exchange site (ΔωcA)” value [1] was 5.33 ppm and 2.83 ppm. The “chemical shift of proton chemical exchange site (ΔωcA)” value ([1]; listed as 5-HT) was 5.33 ppm.
With `N[C@@H](Cc1c[nH]c2ccccc12)C(=O)O` [L-Tryptophan] the “ppm (relative to the resonant frequency of water)” value ([1]; 35 mM, —NH2, 37° C., 20 mM phosphate buffer) was 2.000 ppm, the “Mo − Ms (%)” value [1, 8] was 12.2% and the Ms/Mo [1, 8] was 0.89.
For `NCCCC[C@H](N)C(=O)O` [L-Lysine], the “Mo − Ms (%)” value [1, 9] was 66.2%, the Ms/Mo [1, 9] was 0.34 and the “ppm (relative to the resonant frequency of water)” value [1, 10] was 3.000 ppm.
With `OC[C@H]1O[C@@](CO)(O[C@H]2O[C@H](CO)[C@@H](O)[C@H](O)[C@H]2O)[C@@H](O)[C@@H]1O` [Sucrose] the “ppm (relative to the resonant frequency of water)” value [1, 11] was 1.333 ppm, the “Mo − Ms (%)” value [1, 12] was 10.2% and the Ms/Mo [1, 12] was 0.86.
In the case of `O=C1CNC(=O)N1` [Hydantoin], the “Mo − Ms (%)” value [1, 6] is reported as 18.7% and 21.3% and the Ms/Mo [1, 6] is reported as 0.81 and 0.78.
With `O=C1CC(=O)NC(=S)N1` [2-Thio-Barbituric Acid] the “Mo − Ms (%)” value [1, 6] was 35.3%, the Ms/Mo [1, 6] was 0.65 and the “ppm (relative to the resonant frequency of water)” value [1, 7] was 6.333 ppm. The “chemical shift of proton chemical exchange site (ΔωcA)” value [1] was 6.33 ppm.
With `O=C(O)C1CCN1` (stereo not shown) [Azetidine-2-Carboxylic Acid] the “Mo − Ms (%)” value [1, 6] was 25.5%, the Ms/Mo [1, 6] was 0.74 and the “ppm (relative to the resonant frequency of water)” value [1, 7] was 3.50 ppm.
For `O=C1NCCN1` [2-Imidazolidone], the “Mo − Ms (%)” value [1, 13] was 30.4% and 29.8%, the Ms/Mo [1, 13] was 0.68 and the “ppm (relative to the resonant frequency of water)” value [1, 13] was 1.167 ppm.
In the case of `O=C1CCNC(=O)N1` [5,6 Dihydrouracil], the “pKa of the 5.00 ppm site” value [2] is listed as ~9.5, the “Mo − Ms (%)” value [1, 6] is listed as 22.2% and the Ms/Mo [1, 6] is listed as 0.78 and 0.77. The “ppm (relative to the resonant frequency of water)” value [1, 7] was 5.000 ppm and 2.667 ppm, the “chemical shift of proton chemical exchange site (ΔωcA)” value ([1]; running text, listed as 5,6-dihydro-uracil) was 5.00 ppm and 2.67 ppm and the “chemical shift of proton chemical exchange site (ΔωcA)” value ([1]; running text, listed as 5,6-dihydrouracil) was 5.0 ppm and 2.67 ppm.
In the case of `NC(=O)CC[C@H](N)C(=O)O` [L-Glutamine], the “Mo − Ms (%)” value [1, 9] is reported as 27.6%, the Ms/Mo [1, 9] is reported as 0.70 and the “ppm (relative to the resonant frequency of water)” value [1, 10] is reported as 2.000 ppm.
For `O=C(CO)[C@@H](O)[C@H](O)[C@H](O)CO` [Fructose], the “ppm (relative to the resonant frequency of water)” value [1, 11] was 1.333 ppm, the “Mo − Ms (%)” value [1, 12] was 9.3% and the Ms/Mo [1, 12] was 0.88.
With `C[C@H](N)C(=O)O` [L-Alanine] the “Mo − Ms (%)” value [1, 9] was 67.4%, the Ms/Mo [1, 9] was 0.36 and the “ppm (relative to the resonant frequency of water)” value [1, 10] was 3.000 ppm.
With `O=C[C@H](O)[C@@H](O)[C@@H](O)[C@H](O)CO` [Galactose] the “ppm (relative to the resonant frequency of water)” value [1, 11] was 1.167 ppm, the “Mo − Ms (%)” value [1, 12] was 10.3% and the Ms/Mo [1, 12] was 0.85.
For `OC[C@@H](O)[C@@H](O)[C@H](O)[C@@H](O)CO` [Sorbitol], the “ppm (relative to the resonant frequency of water)” value [1, 11] was 1.000 ppm, the “Mo − Ms (%)” value [1, 12] was 7.3% and the Ms/Mo [1, 12] was 0.88.
For `Cl.N` [NH4Cl, reference compound], the “enhancement in difference image of phantoms” value [3] was “neither the surrounding water nor the NH4Cl control were significantly affected”.
With `N=C(N)N` [Guanidine HCl] the “ppm (relative to the resonant frequency of water)” value ([1]; 125 mM, guanidinium protons, single pH 7.0, 37° C., 20 mM phosphate buffer) was 2.000 ppm, the “Mo − Ms (%)” value [1, 14] was 60.0% and the Ms/Mo [1, 14] was 0.38.
For `O=C(O)C1CCCCN1` (stereo not shown) [Pipecolinic Acid], the “Mo − Ms (%)” value [1, 6] was 19.3%, the Ms/Mo [1, 6] was 0.81 and the “ppm (relative to the resonant frequency of water)” value [1, 7] was 3.33 ppm.
With `OC[C@@H](O)[C@@H](O)[C@H](O)[C@H](O)CO` [Mannitol] the “ppm (relative to the resonant frequency of water)” value [1, 11] was 1.000 ppm, the “Mo − Ms (%)” value [1, 12] was 9.0% and the Ms/Mo [1, 12] was 0.89.
For `O=C1NC(=O)C(=O)N1` [Parabanic Acid], the “Mo − Ms (%)” value [1, 6] was 20.5% and 25.4% and 22.5% and the Ms/Mo [1, 6] was 0.79 and 0.74 and 0.77.
`O=c1ccn([C@@H]2O[C@H](CO)[C@@H](O)[C@H]2O)c(=O)[nH]1` [Uridine] gave a Ms/Mo [1, 15] of 0.65.
In the case of `O=C1CC(=O)NC(=O)N1` [Barbituric Acid], the “enhancement in difference image of phantoms” value ([3]; 4T, about 20° C., irradiated at ±850 Hz, barbituric acid 62.5 mM pH 7.4, 7.0, 6.5, NH4Cl 500 mM pH 5.0) is reported as “enhanced”, the “physiological response to the injection” value (rabbit bladder; intravenous, 125 mM solution) is reported as “physiologically unaltered (i.e. no change in blood pressure)” and the “time to reach the kidneys” value (rabbit bladder; intravenous, 50 mL doses of 125 mM solution, pH 7.4) is reported as ≤ 20 min. For the same compound, the “location of signal remaining in the in vivo difference image” value (rabbit bladder; irradiation ±900 Hz (5.25 ppm/4T)) was “is in the bladder, not in the muscle or other tissues”, the “Oral dosage toxicity, LD50” value [4] was > 5000 mg/kg and the pKa [5] was 12. For the same compound, the “Mo − Ms (%)” value [1, 6] was 32.5%, the Ms/Mo [1, 6] was 0.68 and the “ppm (relative to the resonant frequency of water)” value [1, 7] was 5.000 ppm. The “chemical shift of proton chemical exchange site (ΔωcA)” value [1] was 5.00 ppm.
With `CCC1(CC)C(=O)NC(=O)NC1=O` [Barbital (5,5-Diethyl-Barbituric Acid), 5,5-Diethyl-Barbituric Acid] the pKa [5] was 7, the “Mo − Ms (%)” value [1, 6] was 14.2% and the Ms/Mo [1, 6] was 0.82. The “ppm (relative to the resonant frequency of water)” value [1, 7] was 5.000 ppm.
For `Cc1cn([C@H]2C[C@H](O)[C@@H](CO)O2)c(=O)[nH]c1=O` [Thymidine], the “ppm (relative to the resonant frequency of water)” value ([1]; 125 mM, 3-NH, 37° C., 2 mM phosphate buffer) was 6.333 ppm, the “Mo − Ms (%)” value [1, 15] was 34.8% and the Ms/Mo [1, 15] was 0.65.
